# Source: patent publication US6004950A, “2-aminopyridines as inhibitors of cyclooxygenase-2” (Merck Frosst Canada, Inc., priority 1998, dated 1999)
# Legend:
# COX-1 [1] = biological target: T1, COX-1 (Homo sapiens, UniProt P23219); test: Assay of COX-1 activity from U937 cell microsomes; assay type: biochemical; design: Assay of COX-1 Activity from U937 cell microsomes; endogenous in cells; host or cells: U937 cells, 100,000×g microsomal pellet; conditions: U937 cell microsomes, PGE2; read-out: COX-1 (IC50 mM) U-937
# T1 sequence (P23219 24-599): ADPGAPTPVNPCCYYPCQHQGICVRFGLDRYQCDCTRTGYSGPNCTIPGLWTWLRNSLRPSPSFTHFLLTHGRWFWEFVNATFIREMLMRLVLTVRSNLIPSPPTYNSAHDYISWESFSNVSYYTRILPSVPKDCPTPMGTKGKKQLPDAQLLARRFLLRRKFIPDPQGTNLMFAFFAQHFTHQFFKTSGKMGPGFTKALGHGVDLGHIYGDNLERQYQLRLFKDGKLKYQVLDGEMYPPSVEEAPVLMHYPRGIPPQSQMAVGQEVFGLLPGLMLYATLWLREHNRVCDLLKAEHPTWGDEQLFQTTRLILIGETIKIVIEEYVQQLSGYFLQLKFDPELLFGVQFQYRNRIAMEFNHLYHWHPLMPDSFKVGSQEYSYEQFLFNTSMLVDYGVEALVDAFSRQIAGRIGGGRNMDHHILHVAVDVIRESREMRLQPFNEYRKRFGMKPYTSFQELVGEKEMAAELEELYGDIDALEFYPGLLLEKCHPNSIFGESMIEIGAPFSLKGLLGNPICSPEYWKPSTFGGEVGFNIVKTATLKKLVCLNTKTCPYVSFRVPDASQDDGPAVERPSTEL
# Procedure: Assay of COX-1 Activity from U937 cell microsomes
# U 937 cells are pelleted by centrifugation at 500×g for 5 min and washed once with phosphate-buffered saline and repelleted. Cells are resuspended in homogenization buffer consisting of 0.1 M Tris-HCl, pH 7.4, 10 mM EDTA, 2 μg/ml leupeptin, 2 μg/ml soybean trypsin inhibitor, 2 μg/ml aprotinin and 1 mM phenyl methyl sulfonyl fluoride. The cell suspension is sonicated 4 times for 10 sec and is centrifuged at 10,000×g for 10 min at 4° C. The supernatant is centrifuged at 100,000×g for 1 hr at 4° C. The 100,000×g microsomal pellet is resuspended in 0.1 M Tris-HCl, pH 7.4, 10 mM EDTA to approximately 7 mg protein/ml and stored at -80° C.
# Microsomal preparations are thawed immediately prior to use, subjected to a brief sonication, and then diluted to a protein concentration of 125 μg/ml in 0.1 M Tris-HCl buffer, pH 7.4 containing 10 mM EDTA, 0.5 mM phenol, 1 mM reduced glutathione and 1 μM hematin. Assays are performed in duplicate in a final volume of 250 μl. Initially, 5 μl of DMSO vehicle or drug in DMSO are added to 20 μl of 0.1 M Tris-HCl buffer, pH 7.4 containing 10 mM EDTA in wells of a 96-deepwell polypropylene titre plate. 200 μl of the microsomal preparation are then added and pre-incubated for 15 min at room temperature before addition of 25 μl of […] arachidonic acid in […] Tris-HCl and 10 mM EDTA, pH 7.4. Samples are incubated for 40 min at room temperature and the reaction is stopped by the addition of 25 μl of 1 N HCl. Samples are neutralized with 25 μl of 1 N NaOH prior to quantitation of PGE2 content by radioimmunoassay (Dupont-NEN or Amersham assay kits). Cyclooxygenase activity is defined as the difference between PGE2 levels in samples incubated in the presence of arachidonic acid and ethanol vehicle.
# In the assay, inhibition is determined by measuring the amount of prostaglandin E2 (PGE2) synthesized in the presence of arachidonic acid, cyclooxygenase-1 or cyclooxygenase-2 and a putative inhibitor.
# COX-2 [2] = biological target: T2, COX-2 (Homo sapiens, UniProt P35354); test: Whole cell assay for COX-2 using CHO transfected cell line CHO[hCOX-2], inhibition of PGE2 synthesis; assay type: cell-based; conditions: CHO[hCOX-2] cells, 10 μM AA, PGE2; read-out: COX-2 (IC50 mM) CHO
# T2 construct: incubation of human whole blood with LPS, which induces COX-2; endogenous in cells; host or cells: heparinized fresh whole blood of human volunteers, incubated with LPS for 24 h
# T2 sequence (P35354 18-604): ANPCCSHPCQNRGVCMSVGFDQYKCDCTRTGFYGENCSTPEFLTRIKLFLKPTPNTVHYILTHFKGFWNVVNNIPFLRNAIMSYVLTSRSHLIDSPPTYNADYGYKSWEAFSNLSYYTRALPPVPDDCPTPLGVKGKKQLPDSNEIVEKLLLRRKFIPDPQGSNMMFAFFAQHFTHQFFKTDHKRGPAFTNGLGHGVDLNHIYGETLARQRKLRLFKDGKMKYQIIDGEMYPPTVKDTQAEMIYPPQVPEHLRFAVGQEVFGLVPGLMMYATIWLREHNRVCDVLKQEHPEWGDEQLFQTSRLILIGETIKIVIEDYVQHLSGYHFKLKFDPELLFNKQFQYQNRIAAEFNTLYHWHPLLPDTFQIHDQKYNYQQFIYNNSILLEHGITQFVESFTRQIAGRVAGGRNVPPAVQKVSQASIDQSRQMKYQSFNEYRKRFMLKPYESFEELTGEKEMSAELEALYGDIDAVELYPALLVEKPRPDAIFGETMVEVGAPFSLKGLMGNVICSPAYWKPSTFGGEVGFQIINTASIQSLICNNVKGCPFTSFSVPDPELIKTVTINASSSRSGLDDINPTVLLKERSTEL
# COX-2 [3] = biological target: T2, COX-2; test: Human whole blood assay, COX-2 (LPS-induced PGE2 production); assay type: cell-based; conditions: human whole blood, LPS-induced PGE2, 24 h; read-out: COX-2 (IC50 mM) HWB
# Excerpt: (§1) As well, platelets in whole blood contain a large amount of the COX-1 enzyme. Immediately following blood clotting, platelets are activated through a thrombin-mediated mechanism. This reaction results in the production of thromboxane B2 (TxB2) via activation of COX-1. Thus, the effect of test compounds on TxB2 levels following blood clotting can be examined and used as an index for COX-1 activity. Therefore, the degree of selectivity by the test compound can be determined by measuring the levels of PGE2 after LPS induction (COX-2) and TxB2 following blood clotting (COX-1) in the same assay.
# A. COX-2 (LPS-induced PGE2 production)
# Fresh blood is collected in heparinized tubes by venipuncture from both male and female volunteers. The subjects have no apparent inflammatory conditions and have not taken any NSAIDs for at least 7 days prior to blood collection. Plasma is immediately obtained from a 2 mL blood aliquot to use as blank (basal levels of PGE2).
# COX-1 [4] = biological target: T1, COX-1; test: Human whole blood assay, COX-1 (clotting-induced TxB2 production); assay type: cell-based; design: platelets in whole blood contain a large amount of the COX-1 enzyme; endogenous in cells; host or cells: fresh human whole blood without anticoagulant (platelets), clotted 1 h at 37° C; conditions: clotting-induced TxB2, 1 h, read-out: COX-1 (IC50 mM) HWB
# Procedure: as §1, with “Human whole blood provides a protein and cell-rich milieu appropriate for the study of biochemical efficacy of anti-inflammatory compounds such as selective COX-2 inhibitors. […] This is consistent with the observation that COX-2 inhibitors have no effect on PGE2 production in normal blood. These inhibitors are active only after incubation of human whole blood with LPS, which induces COX-2. This assay can be used to evaluate the inhibitory effect of selective COX-2 inhibitors on PGE2 production. As” for “As”
# B. COX-1 (Clotting-induced TxB2 production)
# Fresh blood is collected into vacutainers containing no anticoagulants. […] The tubes are vortexed and incubated at 37° C. for 1 hour to allow blood to clot. At the end of incubation, serum is obtained by centrifugation (12,000×g for 5 min.). […]
Structure (SMILES),IC50 (COX-1 [1]),IC50 (COX-2 [2]),IC50 (COX-2 [3]),IC50 (COX-1 [4])
"CS(=O)(=O)c1ccc(-c2cc(C(F)(F)F)cnc2N2CCCCC2)cc1 [Example 2, 3-(4-Methylsulfonyl)phenyl-2-piperidin-1-yl-5-trifluoromethylpyridine]",0.003 mM,4 nM,0.0003 mM,> 0.1 mM
"CS(=O)(=O)c1ccc(-c2cc(C(F)(F)F)cnc2N2CCC(F)(F)CC2)cc1 [Example 24, 2-(4,4-Difluoro)piperidin-1-yl-3-(4-methylsulfonyl)phenyl-5-trifluoromethylpyridine]",> 0.01 mM,20 nM,0.0103 mM,
"CS(=O)(=O)c1ccc(-c2cc(C(F)(F)F)cnc2N2CCCC(F)(F)C2)cc1 [Example 25, 2-(3,3-Difluoro)piperidin-1-yl-3-(4-methylsulfonyl)phenyl-5-trifluoromethylpyridine]",> 0.01 mM,80 nM,0.0047 mM,
"CS(=O)(=O)c1ccc(-c2cc(C(F)(F)F)cnc2N2CCC(F)CC2)cc1 [Example 26, 2-(4-Fluoro)piperidin-1-yl-3-(4-methylsulfonyl)phenyl-5-trifluoromethylpyridine]",0.003 to 0.01 mM,10 nM,0.0017 mM,
"CS(=O)(=O)c1ccc(-c2cc(C(F)(F)F)cnc2N2CCOCC2)cc1 [Example 27, 3-(4-Methylsulfonyl)phenyl-2-morpholin-4-yl-5-trifluoromethylpyridine]",> 0.01 mM,60 nM,0.0036 mM,
"CS(=O)(=O)c1ccc(-c2cc(C(F)(F)F)cnc2N2CCSCC2)cc1 [Example 28, 3-(4-Methylsulfonyl)phenyl-2-thiomorpholin-4-yl-5-trifluoromethylpyridine]",0.003 to 0.01 mM,30 nM,0.0014 mM,
